From patent US20260125375A1 (Pfizer Inc., priority 2022, published 2026) come the findings set out here.

One experiment has as its target T1, CBL-B (residues 36-427) (Homo sapiens, UniProt Q13191).
T1 construct: Purified CBL-B (residues 36-427) and C-CBL (residues 46-435) proteins from baculovirus-infected insect cells; made in house; host or cells: baculovirus-infected insect cells
Kind of experiment: Ligand Displacement Assay (LDA), HTRF competitive binding against BODIPY-labeled fluorescent tracer, CBL-B. Particulars: geometric mean of the number of tests, read-out: CBL-B Ki (nM) GMean. In a few lines:
(§1)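 First, the insect-cell-expressed protein is biotinylated at its amino-terminal AviTag with BirA and coupled to SA-Tb. Next, the tracer KD is determined for each protein. Finally, compounds are titrated three-fold in duplicate […], at 2% DMSO, and Ki is reported as a geometric mean.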
For orientation: Time-resolved FRET reads energy transfer from a long-lived donor to a nearby acceptor.

A further experiment concerns the target T2, C-CBL (residues 46-435) (Homo sapiens, UniProt P22681).
T2 construct: Purified CBL-B (residues 36-427) and C-CBL (residues 46-435) proteins from baculovirus-infected insect cells; made in house; host or cells: baculovirus-infected insect cells
T2 sequence (P22681 46-435): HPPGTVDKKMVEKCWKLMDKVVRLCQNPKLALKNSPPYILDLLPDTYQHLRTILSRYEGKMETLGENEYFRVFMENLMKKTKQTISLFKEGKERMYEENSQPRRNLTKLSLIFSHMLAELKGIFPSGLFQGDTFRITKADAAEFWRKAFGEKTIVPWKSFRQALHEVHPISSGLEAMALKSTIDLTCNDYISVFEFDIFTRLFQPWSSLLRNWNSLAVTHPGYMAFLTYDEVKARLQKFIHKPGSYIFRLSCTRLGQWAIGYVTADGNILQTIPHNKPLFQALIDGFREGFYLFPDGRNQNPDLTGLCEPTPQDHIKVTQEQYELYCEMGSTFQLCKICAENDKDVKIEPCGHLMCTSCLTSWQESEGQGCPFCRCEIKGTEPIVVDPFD
Kind of experiment: Ligand Displacement Assay (LDA), HTRF competitive binding against BODIPY-labeled fluorescent tracer, C-CBL. Particulars: geometric mean of the number of tests, read-out: C-CBL Ki (nM) GMean. In a few lines:
as §1

For the next experiment, the target named is T3, WT CBL-B (36-427) (Homo sapiens, UniProt Q13191).
T3 construct: N-terminal biotinylated WT CBL-B (36-427) and C-CBL (46-435) were captured on a streptavidin (SA) coated sensor chip
Kind of experiment: Surface Plasmon Resonance (SPR) assay, binding affinity and kinetics, CBL-B. Particulars: SPR at 10° C., biotinylated WT CBL-B (36-427) on streptavidin chip; geometric mean; read-out: CBL-B SPR Kd (nM) GMean. In a few lines: (§2)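 SPR kinetics at 10° C, run either single-cycle (0.001–1 μM, 3-fold, 6 points, 120 s on, >5400 s off) or multi-cycle (10 points, 2-fold, top 10 or 100 μM, 90 s on). Proteins were N-biotinylated CBL-B (36-427) and C-CBL (46-435) on SA surfaces, in pH 7.2 HEPES, 2% DMSO.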

The target of the next experiment is T4, C-CBL (46-435) (Homo sapiens, UniProt P22681).
T4 construct: N-terminal biotinylated WT CBL-B (36-427) and C-CBL (46-435) were captured on a streptavidin (SA) coated sensor chip
T4 sequence (P22681 46-435): T2 sequence (P22681 46-435)
The experiment can be described thus: Surface Plasmon Resonance (SPR) assay, binding affinity and kinetics, C-CBL. Particulars: SPR at 10° C., biotinylated C-CBL (46-435) on streptavidin chip; geometric mean; read-out: C-CBL SPR Kd (nM) GMean. The method in brief:
as §2

For the compound `Cn1cnnc1[C@@H](c1cccc(-c2n[nH]c3c(CO)nc(C(F)(F)F)cc23)c1)C1CCC1` [Example K9, [3-{3-[(R)-cyclobutyl(4-methyl-4H-1,2,4-triazol-3-yl)methyl]phenyl}-5-(trifluoromethyl)-1H-pyrazolo[3,4-c]pyridin-7-yl]methanol], the inhibition constant Ki turned out to be 45.4 nM at CBL-B (residues 36-427) and 328 nM on C-CBL (residues 46-435). Moreover, the equilibrium dissociation constant (Kd) was 12.7 nM on WT CBL-B (36-427) and 298 nM on C-CBL (46-435).

In the case of `C[C@@H](c1nc(C(F)(F)F)cc2c(-c3cccc(C4(Cc5nncn5C)COC4)c3)n[nH]c12)N(C)C` (single isomer, unassigned) [Example D39], the Ki came out at 42.1 nM at CBL-B (residues 36-427) and 229 nM at C-CBL (residues 46-435). Further, the equilibrium dissociation constant (Kd) at WT CBL-B (36-427) is 14.9 nM; on C-CBL (46-435), 164 nM.

`Cn1cnnc1CC1(c2cccc(-c3n[nH]c4c(CN5CCC5)nc(C(F)(F)F)cc34)c2)COC1` [Example C61, 7-[(azetidin-1-yl)methyl]-3-(3-{3-[(4-methyl-4H-1,2,4-triazol-3-yl)methyl]oxetan-3-yl}phenyl)-5-(trifluoromethyl)-1H-pyrazolo[3,4-c]pyridine]: the figures for the inhibition constant Ki on CBL-B (residues 36-427) and on C-CBL (residues 46-435) were 53 nM and 232 nM, respectively. In addition, the dissociation constant Kd was 12.8 nM on WT CBL-B (36-427) and 99.8 nM at C-CBL (46-435).

For the compound `C[C@@H](c1nc(C(F)(F)F)cc2c(-c3cccc(C4(Cc5nncn5C)COC4)c3)n[nH]c12)N1CCNCC1` (single isomer, unassigned) [Example D53], the Ki stood at 11.8 nM on CBL-B (residues 36-427) and 36.9 nM at C-CBL (residues 46-435). In addition, the figures for the equilibrium dissociation constant (Kd) at WT CBL-B (36-427) and at C-CBL (46-435) were 3.2 nM and 36.1 nM, respectively.

With `CC(=O)NCC(C)c1nc(C(F)(F)F)cc2c(-c3cccc([C@H](c4nncn4C)C4CCC4)c3)n[nH]c12` (single isomer, unassigned) [Example M5], the inhibition constant (Ki) on CBL-B (residues 36-427) is 52.5 nM; at C-CBL (residues 46-435), 527 nM. The Kd is 14.2 nM on WT CBL-B (36-427) and 741 nM at C-CBL (46-435).

`Cn1cnnc1[C@@H](c1cccc(-c2n[nH]c3cnc(Cl)cc23)c1)C1CCC1` [Example A3, 5-chloro-3-{3-[(R)-cyclobutyl(4-methyl-4H-1,2,4-triazol-3-yl)methyl]phenyl}-1H-pyrazolo[3,4-c]pyridine]: the Ki at CBL-B (residues 36-427) was found to be 31.1 nM; on C-CBL (residues 46-435), 362 nM. The Kd on WT CBL-B (36-427) was 12.9 nM; on C-CBL (46-435) it was 301 nM.

For `C[C@@H](N)c1nc(C(F)(F)F)cc2c(-c3cccc([C@H](c4nncn4C)C4CCC4)c3)n[nH]c12` [Example K13, (1R)-1-[3-{3-[(R)-cyclobutyl(4-methyl-4H-1,2,4-triazol-3-yl)methyl]phenyl}-5-(trifluoromethyl)-1H-pyrazolo[3,4-c]pyridin-7-yl]ethan-1-amine], the inhibition constant Ki worked out at 27 nM on CBL-B (residues 36-427) and 215 nM on C-CBL (residues 46-435). The dissociation constant (Kd) at WT CBL-B (36-427) worked out at 12.1 nM; on C-CBL (46-435), 285 nM.

On to `Cn1cnnc1CC1(c2cccc(-c3n[nH]c4c(CN5C[C@H](F)[C@@H](F)C5)nc(C(F)(F)F)cc34)c2)COC1` [Example C68, 7-{[(3S,4S)-3,4-difluoropyrrolidin-1-yl]methyl}-3-(3-{3-[(4-methyl-4H-1,2,4-triazol-3-yl)methyl]oxetan-3-yl}phenyl)-5-(trifluoromethyl)-1H-pyrazolo[3,4-c]pyridine], for which the Ki on CBL-B (residues 36-427) was found to be 24.8 nM; at C-CBL (residues 46-435), 124 nM. Also, the Kd at WT CBL-B (36-427) stood at 10.7 nM; at C-CBL (46-435), 122 nM.

Regarding `Cn1cnnc1[C@@H](c1cccc(-c2n[nH]c3c(CN4CC(F)(F)C4)nc(C(F)(F)F)cc23)c1)C1CCC1` [Example C115, 3-{3-[(R)-cyclobutyl(4-methyl-4H-1,2,4-triazol-3-yl)methyl]phenyl}-7-[(3,3-difluoroazetidin-1-yl)methyl]-5-(trifluoromethyl)-1H-pyrazolo[3,4-c]pyridine], the inhibition constant Ki was 73.8 nM on CBL-B (residues 36-427) and 1020 nM at C-CBL (residues 46-435). Also, the values for the Kd on WT CBL-B (36-427) and at C-CBL (46-435) were 9.2 nM and 195 nM, respectively.

For `CC(N[C@H]1CCOC1)c1nc(C(F)(F)F)cc2c(-c3cccc(C4(Cc5nncn5C)COC4)c3)n[nH]c12` (single isomer, unassigned) [Example C82], the inhibition constant Ki was determined as 5.2 nM at CBL-B (residues 36-427) and 23.3 nM on C-CBL (residues 46-435). The figures for the Kd at WT CBL-B (36-427) and at C-CBL (46-435) were 2.3 nM and 17 nM, respectively.

For the compound `Cn1cnnc1CC1(c2cccc(-c3n[nH]c4c(CN5CC(F)(F)C5)nc(C(F)(F)F)cc34)c2)COC1` [Example C69, 7-[(3,3-difluoroazetidin-1-yl)methyl]-3-(3-{3-[(4-methyl-4H-1,2,4-triazol-3-yl)methyl]oxetan-3-yl}phenyl)-5-(trifluoromethyl)-1H-pyrazolo[3,4-c]pyridine], the Ki is 34.5 nM on CBL-B (residues 36-427) and 185 nM at C-CBL (residues 46-435). Moreover, the dissociation constant (Kd) came out at 30.2 nM at WT CBL-B (36-427) and 208 nM at C-CBL (46-435).

As to `Cn1cnnc1[C@@H](c1cccc(-c2n[nH]c3c(CN4C[C@@H](O)[C@H](O)C4)nc(C(F)(F)F)cc23)c1)C1CCC1` [Example C74, (3R,4R)-1-{[3-{3-[(R)-cyclobutyl(4-methyl-4H-1,2,4-triazol-3-yl)methyl]phenyl}-5-(trifluoromethyl)-1H-pyrazolo[3,4-c]pyridin-7-yl]methyl}pyrrolidine-3,4-diol], the results for the Ki at CBL-B (residues 36-427) and on C-CBL (residues 46-435) were 7.5 nM and 83.1 nM, respectively. For the same compound, the equilibrium dissociation constant (Kd) at WT CBL-B (36-427) turned out to be 3.2 nM; on C-CBL (46-435) it was 103 nM.

In the case of `CC(N)c1nc(C(F)(F)F)cc2c(-c3cccc(C4(Cc5nncn5C)COC4)c3)n[nH]c12` (single isomer, unassigned) [Example K16, (1ξ)-1-[3-(3-{3-[(4-methyl-4H-1,2,4-triazol-3-yl)methyl]oxetan-3-yl}phenyl)-5-(trifluoromethyl)-1H-pyrazolo[3,4-c]pyridin-7-yl]ethan-1-amine], the Ki at CBL-B (residues 36-427) was 32 nM; at C-CBL (residues 46-435), 140 nM. Moreover, the dissociation constant Kd was 15.7 nM at WT CBL-B (36-427) and 216 nM on C-CBL (46-435).

As for `Cn1cnnc1[C@@H](c1cccc(-c2n[nH]c3c(CN4CCC(F)(F)C4)nc(C(F)(F)F)cc23)c1)C1CCC1` [Example C114, 3-{3-[(R)-cyclobutyl(4-methyl-4H-1,2,4-triazol-3-yl)methyl]phenyl}-7-[(3,3-difluoropyrrolidin-1-yl)methyl]-5-(trifluoromethyl)-1H-pyrazolo[3,4-c]pyridine], the results for the inhibition constant Ki at CBL-B (residues 36-427) and at C-CBL (residues 46-435) were 87.9 nM and 1070 nM, respectively. In addition, the dissociation constant (Kd) amounted to 10.8 nM at WT CBL-B (36-427) and 278 nM at C-CBL (46-435).

On to `C[C@H](c1nc(C(F)(F)F)cc2c(-c3cccc(C4(Cc5nncn5C)COC4)c3)n[nH]c12)N1CCCC1` (single isomer, unassigned) [Example D48], for which the inhibition constant (Ki) was 16.1 nM on CBL-B (residues 36-427) and 44.9 nM at C-CBL (residues 46-435). Further, the dissociation constant Kd at WT CBL-B (36-427) was determined as 9.3 nM; on C-CBL (46-435), 74.6 nM.

As for `CN1CCC(Oc2nc(C(F)(F)F)cc3c(-c4cccc(C5(Cc6nncn6C)COC5)c4)n[nH]c23)C1` (stereo in doubt) [Example J2, 7-{[(3S)-1-methylpyrrolidin-3-yl]oxy}-3-(3-{3-[(4-methyl-4H-1,2,4-triazol-3-yl)methyl]oxetan-3-yl}phenyl)-5-(trifluoromethyl)-1H-pyrazolo[3,4-c]pyridine], the Ki at CBL-B (residues 36-427) worked out at 19.1 nM; at C-CBL (residues 46-435) it was 76.6 nM. In addition, the Kd at WT CBL-B (36-427) is 4.8 nM; on C-CBL (46-435), 37.6 nM.

Usually Ki stands for a dissociation constant, usually derived from enzyme kinetics or from competition with a known ligand. For orientation: Kd means the concentration at which binding is half-saturated.
